Experimental data taken from patent US10316035B2, “Triazolopyridine inhibitors of myeloperoxidase” (BRISTOL-MYERS SQUIBB COMPANY, priority 2015, dated 2019).
Where a name gives a salt, the structure may show the parent alone.

target: T1, myeloperoxidase (MPO) (Homo sapiens, UniProt P05164); assay: MPO peroxidation assay (Amplex Red assay); type: biochemical; conditions: not given
T1 sequence (P05164 49-745): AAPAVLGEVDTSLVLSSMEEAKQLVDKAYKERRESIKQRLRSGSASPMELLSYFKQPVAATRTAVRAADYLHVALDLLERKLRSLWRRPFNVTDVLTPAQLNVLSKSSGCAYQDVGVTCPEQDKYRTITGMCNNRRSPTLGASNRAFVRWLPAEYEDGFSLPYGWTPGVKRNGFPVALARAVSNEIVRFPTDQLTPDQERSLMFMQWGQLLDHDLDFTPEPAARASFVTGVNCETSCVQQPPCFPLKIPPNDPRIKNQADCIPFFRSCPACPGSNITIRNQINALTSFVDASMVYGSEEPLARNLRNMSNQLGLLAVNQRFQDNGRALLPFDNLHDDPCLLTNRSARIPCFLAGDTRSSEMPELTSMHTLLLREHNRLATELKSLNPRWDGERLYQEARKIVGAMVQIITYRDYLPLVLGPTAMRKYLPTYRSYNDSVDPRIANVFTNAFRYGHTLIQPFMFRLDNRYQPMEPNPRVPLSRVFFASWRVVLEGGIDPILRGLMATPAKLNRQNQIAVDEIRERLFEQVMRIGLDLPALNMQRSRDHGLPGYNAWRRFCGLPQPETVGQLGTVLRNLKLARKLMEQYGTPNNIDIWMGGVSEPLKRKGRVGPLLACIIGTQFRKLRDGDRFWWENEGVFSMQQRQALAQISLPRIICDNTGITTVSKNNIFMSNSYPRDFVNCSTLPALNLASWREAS
Outline: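 MPO (200 pM) with 40 nM H2O2 was preincubated 10 min at room temperature with inhibitor in 100 mM KPi pH 7.4. A mix of Amplex Red (200 μM) and H2O2 (10 mM) was then added and resorufin fluorescence read kinetically for 15 min. Slopes over 180–540 s gave % inhibition and IC50 via a four-parameter Hill fit.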

Row | Compound | IC50
1 | CS(=O)(=O)c1ccccc1COc1cc(N)nc2[nH]nnc12 [Example 232, 7-((2-(Methylsulfonyl)benzyl)oxy)-3H-[1,2,3]triazolo[4,5-b]pyridin-5-amine] | 101 to 999 nM
2 | Nc1cc(OCc2ccccc2-n2cccn2)c2nn[nH]c2n1 [Example 255, 7-((2-(1H-Pyrazol-1-yl)benzyl)oxy)-3H-[1,2,3]triazolo[4,5-b]pyridin-5-amine] | 101 to 999 nM

same assay, conditions: MPO peroxidation, potency range class; read-out: Amplex Red IC50

Row | IC50 | Compound
3 | 1 to 100 nM | Nc1cc(OCc2ccc(-n3ccnc3)cc2OC(F)(F)F)c2nn[nH]c2n1 [Example 244, 7-((4-(1H-Imidazol-1-yl)-2-(trifluoromethoxy)benzyl)oxy)-3H-[1,2,3]triazolo[4,5-b]pyridin-5-amine]
4 | 1 to 100 nM | N#Cc1cc(Br)ccc1COc1cc(N)nc2[nH]nnc12 [Example 245, 2-(((5-Amino-3H-[1,2,3]triazolo[4,5-b]pyridin-7-yl)oxy)methyl)-5-bromobenzonitrile]
5 | 101 to 999 nM | CS(=O)(=O)c1ccc(COc2cc(N)nc3[nH]nnc23)c(Cl)c1 [Example 246, 7-((2-chloro-4-(methylsulfonyl)benzyl)oxy)-3H-[1,2,3]triazolo[4,5-b]pyridin-5-amine]
6 | 1 to 100 nM | N#Cc1ccccc1COc1cc(N)nc2[nH]nnc12 [Example 247, 2-(((5-amino-3H-[1,2,3]triazolo[4,5-b]pyridin-7-yl)oxy)methyl)benzonitrile]
7 | 1 to 100 nM | Nc1cc(OCc2cccc(SC(F)(F)F)c2)c2nn[nH]c2n1 [Example 248, 7-((3-((trifluoromethyl)thio)benzyl)oxy)-3H-[1,2,3]triazolo[4,5-b]pyridin-5-amine]
8 | 1 to 100 nM | Nc1cc(OCc2cc([N+](=O)[O-])ccc2Cl)c2nn[nH]c2n1 [Example 249, 7-((2-chloro-5-nitrobenzyl)oxy)-3H-[1,2,3]triazolo[4,5-b]pyridin-5-amine]
9 | 101 to 999 nM | CS(=O)(=O)c1ccc(COc2cc(N)nc3[nH]nnc23)c([N+](=O)[O-])c1 [Example 250, 7-((4-(methylsulfonyl)-2-nitrobenzyl)oxy)-3H-[1,2,3]triazolo[4,5-b]pyridin-5-amine]
10 | 1 to 100 nM | Cc1nc(-c2ccc(COc3cc(N)nc4[nH]nnc34)c(F)c2)no1 [Example 251, 7-((2-fluoro-4-(5-methyl-1,2,4-oxadiazol-3-yl)benzyl)oxy)-3H-[1,2,3]triazolo[4,5-b] pyridin-5-amine]
11 | 1 to 100 nM | COc1cc(Cl)c(Cl)cc1COc1cc(N)nc2[nH]nnc12 [Example 252, 7-((4,5-Dichloro-2-methoxybenzyl)oxy)-3H-[1,2,3]triazolo[4,5-b]pyridin-5-amine]
12 | 101 to 999 nM | Nc1cc(OCc2ccccc2-n2cncn2)c2nn[nH]c2n1 [Example 253, 7-((2-(1H-1,2,4-Triazol-1-yl)benzyl)oxy)-3H-[1,2,3]triazolo[4,5-b]pyridin-5-amine]
13 | 101 to 999 nM | Nc1cc(OCc2ccc(-n3ccccc3=O)cc2OC(F)(F)F)c2nn[nH]c2n1 [Example 256, 1-(4-(((5-amino-3H-[1,2,3]triazolo[4,5-b]pyridin-7-yl)oxy)methyl)-3-(trifluoromethoxy)phenyl) pyridin-2(1H)-one]
14 | 1 to 100 nM | Nc1cc(OCc2ccc(-n3cccn3)cc2OC(F)(F)F)c2nn[nH]c2n1 [Example 257]
15 | 1 to 100 nM | Nc1cc(OCc2ccc(-n3ncc4ccccc43)cc2OC(F)(F)F)c2nn[nH]c2n1 [Example 258, 7-((4-(1H-indazol-1-yl)-2-(trifluoromethoxy)benzyl)oxy)-3H-[1,2,3]triazolo[4,5-b]pyridin-5-amine]

Second part, the molecule before the results:

Row | Compound | IC50
16 | Nc1cc(OCc2ccc(C(=O)NCCc3c[nH]cn3)cc2Cl)c2nn[nH]c2n1 [Example 224, N-(2-(1H-imidazol-4-yl)ethyl)-4-((5-amino-3H-[1,2,3]triazol[4,5-b]pyridin-7-yloxy)methyl)-3-chlorobenzamide] | 1 to 100 nM
17 | CS(=O)(=O)c1cccc(Cl)c1COc1cc(N)nc2[nH]nnc12 [Example 225, 7-(2-Chloro-6-(methylsulfonyl)benzyloxy)-3H-[1,2,3]triazolo[4,5-b]pyridin-5-amine] | 1 to 100 nM
18 | CCS(=O)(=O)c1ccc(Cl)cc1COc1cc(N)nc2[nH]nnc12 [Example 227, 7-((5-Chloro-2-(ethylsulfonyl)benzyl)oxy)-3H-[1,2,3]triazolo[4,5-b]pyridin-5-amine, TFA] | 101 to 999 nM
19 | Nc1cc(OCc2cc(Cl)ccc2S(=O)(=O)Cc2ccccc2)c2nn[nH]c2n1 [Example 228, 7-((2-(Benzylsulfonyl)-5-chlorobenzyl)oxy)-3H-[1,2,3]triazolo[4,5-b]pyridin-5-amine, TFA] | 101 to 999 nM
20 | CNS(=O)(=O)c1ccccc1COc1cc(N)nc2[nH]nnc12 [Example 229, 2-(((5-Amino-3H-[1,2,3]triazolo[4,5-b]pyridin-7-yl)oxy)methyl)-N-methylbenzenesulfonamide, TFA] | 101 to 999 nM
21 | Nc1cc(OCc2ccccc2S(N)(=O)=O)c2nn[nH]c2n1 [Example 230, 2-(((5-Amino-3H-[1,2,3]triazolo[4,5-b]pyridin-7-yl)oxy)methyl)benzenesulfonamide, TFA] | 101 to 999 nM
22 | CS(=O)(=O)c1cc(Br)ccc1COc1cc(N)nc2[nH]nnc12 [Example 231, 7-((4-Bromo-2-(methylsulfonyl)benzyl)oxy)-3H-[1,2,3]triazolo[4,5-b]pyridin-5-amine, TFA] | 1 to 100 nM
23 | Nc1cc(OCc2c(F)cc(Br)cc2F)c2nn[nH]c2n1 [Example 233, 7-((4-Bromo-2,6-difluorobenzyl)oxy)-3H-[1,2,3]triazolo[4,5-b]pyridin-5-amine, TFA] | 1 to 100 nM
24 | Nc1cc(OCc2c(F)ccc(Br)c2Cl)c2nn[nH]c2n1 [Example 235, 7-((3-Bromo-2-chloro-6-fluorobenzyl)oxy)-3H-[1,2,3]triazolo[4,5-b]pyridin-5-amine] | 1 to 100 nM
25 | Nc1cc(OCc2c(F)ccc(Br)c2F)c2nn[nH]c2n1 [Example 236, 7-((3-Bromo-2,6-difluorobenzyl)oxy)-3H-[1,2,3]triazolo[4,5-b]pyridin-5-amine] | 1 to 100 nM
26 | Nc1cc(OCc2c(F)cccc2Cl)c2nn[nH]c2n1 [Example 237, 7-((2-Chloro-6-fluorobenzyl)oxy)-3H-[1,2,3]triazolo[4,5-b]pyridin-5-amine] | 1 to 100 nM
27 | Nc1cc(OCc2ccccc2OC(F)F)c2nn[nH]c2n1 [Example 238, 7-((2-(Difluoromethoxy)benzyl)oxy)-3H-[1,2,3]triazolo[4,5-b]pyridin-5-amine] | 1 to 100 nM
28 | Nc1cc(OCc2ccccc2C(F)(F)F)c2nn[nH]c2n1 [Example 239, 7-((2-(Trifluoromethyl)benzyl)oxy)-3H-[1,2,3]triazolo[4,5-b]pyridin-5-amine] | 1 to 100 nM
29 | Nc1cc(OCc2ccc(Br)cc2OC(F)(F)F)c2nn[nH]c2n1 [Example 240, 7-((4-Bromo-2-(trifluoromethoxy)benzyl)oxy)-3H-[1,2,3]triazolo[4,5-b]pyridin-5-amine] | 1 to 100 nM
30 | Nc1cc(OCc2cc(Cl)ccc2C(F)(F)F)c2nn[nH]c2n1 [Example 241, 7-((5-Chloro-2-(trifluoromethyl)benzyl)oxy)-3H-[1,2,3]triazolo[4,5-b]pyridin-5-amine] | 1 to 100 nM
31 | COc1cc(-n2cccn2)ccc1COc1cc(N)nc2[nH]nnc12 [Example 243, 7-((2-Methoxy-4-(1H-pyrazol-1-yl)benzyl)oxy)-3H-[1,2,3]triazolo[4,5-b]pyridin-5-amine] | 1 to 100 nM
